{
  "source": "patent US8466286B2",
  "about": "“SMMR (small molecule metabolite reporters) for use as in vivo glucose biosensors” (Cercacor Laboratories, Inc., priority 2003, dated 2013)",
  "key": {"PHK cells": {"test_system": "PHK cells", "test": "In-vitro detection in PHK cells loaded with reporter, two-photon fluorescent imaging", "assay_type": "cell-based", "conditions": "50 micromolar reporter; glucose increased to 300 mg/dl; EM 440 nm, 2P excitation 705 nm", "procedure": "PHK cells were loaded with AF-327d reporter, at 50 micromolar concentration, in buffer. Fluorescence was measured using a two-photon fluorescent imaging system at approximately EM 440 nm, and excitation at (2P) 705 nm. Pictures taken 10 minutes apart show a slight change in fluorescence intensity upon increasing the glucose concentration to 300 mg/dl in the cell buffer medium. This is seen clearly, as a 20% decrease in time course of fluorescence."}, "[1]": {"test": "Glucose response rate in stirred cuvette, pH 8 phosphate buffer", "conditions": "100 μL of 300 mg/dL glucose in pH 8 buffer; ex 340 nm, em 440 nm; read every 15 seconds", "procedure": "Arg-327 unprotected batches were prepared. One batch was supplied as a yellow powder and the other as a concentrated solution in deuterated methanol. A small sample of these materials was taken and dissolved in 3 ml of pH 8 phosphate buffer. The fluorescence of these materials was excited at 340 nm and the emission monitored at 440 nm. The fluorescence was monitored every 15 seconds in a stirred cuvette. After about 3 minutes 100 μL of 300 mg/dL glucose in pH 8 buffer was added. […] Similar results were obtained for both samples."}, "[2]": {"conditions": "for response to glucose in vitro: addition of glucose"}, "living cells": {"test_system": "living cells", "test": "Membrane potential (Rh123 fluorescence quenching) to track D-glucose in living cells", "assay_type": "cell-based", "conditions": "glucose 0 to 5 mg/dL (0.28 mM)", "procedure": "The fluorescence quenching is an indication of membrane potential changes within living cells with respect to an increase in glucose concentration, as shown in FIG. 17 (glucose from 0 to 400 mg/dL) and FIG. 18 (glucose from 0 to 66 mg/dL).\nThe saturation point value was expected to be between 0.0 and 2 mg/dL."}, "[3]": {"conditions": "glucose zero to 300 mg/dL, in vitro"}},
  "note": "Read-outs that look alike come from different tables or passages of the source.",
  "data": [
    {"smiles": "O=C(Nc1ccc2c(C(F)(F)F)cc(=O)oc2c1)c1ccc(B(O)O)cc1", "note": "[AF-327d]", "values": [
      {"measurement": "decrease in time course of fluorescence", "setting": "PHK cells", "result": 20, "unit": "%"},
      {"measurement": "glucose response rate (fluorescence after glucose addition)", "setting": "[1]", "result": "increased immediately"},
      {"measurement": "response to glucose in vitro", "setting": "[2]", "result": "stronger response to glucose than other published compounds"},
      {"measurement": "change of absorption spectrum at the excitation wavelength as a function of glucose concentration", "setting": "[2]; excitation 375 nm", "result": "less than 10%"},
      {"measurement": "increase of fluorescence intensity with glucose", "setting": "[2]; glucose range of 200 mg/dL, excitation 375 nm, emission 400-550 nm", "result": "at least 40%"},
      {"measurement": "increase of fluorescence intensity with glucose", "setting": "[2]; [3]", "result": 60, "unit": "%"}
    ]},
    {"smiles": "O=C(Nc1ccc2oc(=O)c3ccccc3c2c1)c1ccc(B(O)O)cc1", "note": "[AF-345]", "values": [
      {"measurement": "increase of fluorescence intensity with glucose", "setting": "[2]; [3]", "result": 30, "unit": "%"}
    ]},
    {"smiles": "COC(=O)c1ccccc1-c1c2ccc(=N)cc-2oc2cc(N)ccc12.Cl", "note": "[Rh123]", "values": [
      {"measurement": "Rh123 fluorescence with increasing glucose levels", "setting": "living cells", "result": "approximate linear decrease"}
    ]},
    {"smiles": "O=C(Nc1ccc([N+](=O)[O-])cc1)c1ccc(B(O)O)cc1", "note": "[AF-339]", "values": [
      {"measurement": "response to glucose in vitro", "setting": "[2]", "result": "weaker than AF-327"}
    ]},
    {"smiles": "O=C(/C=C/c1ccc(B(O)O)cc1)c1cc2ccccc2oc1=O", "note": "[AF-343]", "values": [
      {"measurement": "response to glucose in vitro", "setting": "[2]", "result": "No fluorescence or glucose effect"}
    ]}
  ]
}
